Measured values published in article PMC12648656, “Palladium(II) Complexes with Noncovalent Interactions with DNA: Solution Speciation Controlled by Solvent Identity, pH, and Concentration” (Inorganic Chemistry, 2025).

Assays:
[1] = Spectrophotometric (UV-vis) pH titrations for proton dissociation constants; assay type: physicochemical; settings: 60% (v/v) DMSO/H2O
Protocol: Spectrophotometric titrations were applied to study the equilibrium processes (proton dissociation and complex dissociation/formation) in DMSO/H2O mixtures due to the limited aqueous solubility of the compounds. The calibration of the electrode system was performed by strong acid–strong base pH-potentiometric titrations in 30% (v/v) and 60% (v/v) DMSO/H2O solvent mixtures at 25.0 ± 0.1 °C as described in our previous works. , KCl (0.1 M) was the supporting electrolyte to maintain constant ionic strength, which refers to the chloride ion concentration in blood plasma. […] The initial sample volume was 5 mL. Spectrophotometric titrations were performed in the pH range 1.8–12.5 for 30% (v/v) DMSO/H2O medium and 1.8–14.0 for 60% (v/v) DMSO/H2O medium. Prior to the titrations, purified argon was passed through the samples for approximately 10 min to remove CO2 traces, and argon was also passed over the samples during these measurements. The proton dissociation constants were calculated by using the computer program PSEQUAD.

[2] = n-Octanol/water and n-octanol/Tris buffer shake-flask partitioning; assay type: physicochemical
Protocol: The distribution coefficient values (D 7.4) of the compounds were determined by the traditional shake-flask method in n-octanol/buffered aqueous solution at pH 7.40 for 5 mM Tris HCl with 0.1 M KCl and at pH 7.4 at 25.0 ± 0.2 °C. The ligand and complexes were dissolved in n-octanol (presaturated by the aqueous buffer) because of the very low aqueous solubility. The aqueous buffer solution and n-octanol ratio was 1:1 due to the expected high lipophilicity of the compounds. First, samples were mixed with vertical rotation (∼20 rpm) for 3 h, and then the two phases were separated by centrifugation at 3000 rpm (∼1000g) for 3 min. After separation, UV–vis spectra of the compounds were recorded in both phases. Spectra of the n-octanol phases were compared to those of the original n-octanol stock solutions.
The distribution coefficient values were also determined using unbuffered water and octanol (also presaturated) with a ratio of 1:1.

[3] = tested on: Enterococcus faecalis (ATCC 29212); assay: Antibacterial MIC, broth dilution; assay type: cell-based; settings: E. faecalis, 18 h, 37 °C
Protocol: (§1) Antibacterial activity was determined for the title compounds in various Gram-negative and Gram-positive bacterial strains, namely Klebsiella pneumoniae, Escherichia coli (ATCC 25922), Staphylococcus aureus (272123), methicillin-resistant Staphylococcus aureus (ATCC 43300), and Enterococcus faecalis (ATCC 29212). The stock solutions of the tested compounds were prepared in DMSO at a 5 mM concentration. […] All stock solutions were diluted in 100 μL of Mueller Hinton Broth, and then two-fold serial dilutions were performed. Then, a 10^–4 dilution of an overnight bacterial culture in 100 μL of medium was added to each well, except for the medium control wells. The highest concentration of the compounds in the tested samples was 100 μM. The plates were incubated at 37 °C for 18 h. After that, the MIC values were determined by visual inspection.

[4] = tested on: Escherichia coli (ATCC 25922); assay: Antibacterial MIC, broth dilution; assay type: cell-based; settings: E. coli, 18 h, 37 °C
Protocol: as §1

Klebsiella pneumoniae = assay: Antibacterial MIC, broth dilution; assay type: cell-based; settings: K. pneumoniae, 18 h, 37 °C
Protocol: as §1

[5] = tested on: Staphylococcus aureus (272123); assay: Antibacterial MIC, broth dilution; assay type: cell-based; settings: S. aureus, 18 h, 37 °C
Protocol: as §1

[6] = tested on: methicillin-resistant Staphylococcus aureus (ATCC 43300); assay: microbe, parasite or virus in culture; assay type: cell-based; settings: S. aureus (MRSA), 18 h, 37 °C
Protocol: as §1

[7] = Stability in physiological buffers (Tris, phosphate, HEPES) by UV-vis; assay type: physicochemical
Protocol: The reaction of the metal complexes (2) and (3) with buffer components was followed in an array of DMSO percentages, from 1% to 60% (v/v) DMSO/H2O (pH 7.4) medium. The samples were prepared by dilution of the stock solution of the respective complex in DMSO (5 mM) with 5 mM Tris 1% (v/v) DMSO/H2O or 5 mM phosphate buffers 60% (v/v) DMSO/H2O (pH 7.40 in both cases), reaching a final concentration of 10^–6 to 10^–4 M. The UV–vis spectra of the final samples were followed over time at 37 °C for up to 24 h.

glutathione (GSH) = assay: Reaction with glutathione followed by UV-vis; settings: 30-fold GSH, ~20 μM complex, 60% (v/v) DMSO/phosphate buffer pH 7.4, 25.0 °C
Protocol: Reactions between the title compounds and GSH were also followed by UV–vis spectrophotometry under an inert atmosphere to overcome oxidation of GSH by air oxygen. Samples contained the metal complexes at low concentrations (∼20 μM) and were prepared using 60% (v/v) DMSO/phosphate buffer solution (pH 7.4) to avoid precipitation. The reactants were separated in the pockets of a tandem cuvette, followed by deoxygenation by argon bubbling. The separate solutions were mixed at 1:30 metal complex:GSH molar ratios, and UV–vis spectra were recorded. Argon was continuously passed over the sample during the whole measurement.

pBR322 plasmid DNA = assay: Agarose gel electrophoresis mobility shift; assay type: binding; settings: r i 0.01 to 0.20, 24 h, 37 °C
Protocol: Complexes (2) and (3) were incubated at 37 °C with a concentration of 0.0625 μg/μL pBR322 plasmid DNA at different concentrations expressed as r i = complex:DNA (base pair) ratio. The r i used was from 0.01 to 0.20, in a total volume of 20 μL. After an incubation period of 24 h, the mobility of the complex-treated pBR322 samples was analyzed by gel electrophoresis at 70 V in Tris/acetate/EDTA buffer. A control of pBR322 was also incubated, and a 1 kb ladder aliquot was loaded into lane 1 of the gel. The gel was stained with an ethidium bromide aqueous solution, and DNA bands were visualized with a UV-transilluminator UVITEC Cambridge UVIDOC HD2 instrument. The studies were performed with 3% (v/v) DMSO as the final solution.

## Clc1ccc(N=C2N[N+](=Cc3c[nH]cn3)[Pd-2]3([S]C(Nc4ccc(Cl)cc4)=N[N+]3=Cc3c[nH]cn3)[S]2)cc1 (stereo not shown) [(2), Bis(1H-imidazole-4-carboxaldehyde-4N-p-chlorophenylthiosemicarbazonato)palladium(II)]
[1]; I = 0.10 M (KCl), 25.0 °C
  pKa1: 2.97 ± 0.02
  pKa2: 8.40 ± 0.02
  pKa3: 11.31 ± 0.01
[1]; same medium
  reduction of proton dissociation constant of step I compared to the ligand: 0.8 logarithm units
  reduction of proton dissociation constant of step II compared to the ligand: 2.7 logarithm units
[2]; n-octanol/5 mM Tris HCl with 0.1 M KCl, pH 7.40, 25.0 °C
  log D o/t: +2.32 ± 0.16
[2]; n-octanol/pure (unbuffered) water, 1:1
  log D o/w: +1.70 ± 0.06
[3]
  MIC: > 100 µM
[4]
  MIC: > 100 µM
Klebsiella pneumoniae
  MIC: > 100 µM
[5]
  MIC: > 100 µM
[6]
  MIC: > 100 µM
[7]; HEPES, pH 7.4, 0.1 M chloride, 60% DMSO
  behaviour in HEPES buffer: formed precipitation
[7]; Tris buffer containing 3% (v/v) DMSO, pH 7.4, 20.0 μM
  time stable in solution, no precipitation: up to 24 h
[7]; Tris buffer, 60% DMSO
  stability after 24 h: decreased the stability
[7]; pH 7.4, 0.1 M chloride, 3% (v/v) DMSO
  behaviour in phosphate buffer: precipitated
[7]; pH 7.4, 0.1 M chloride, 60% (v/v) DMSO, first 10 h
  behaviour in phosphate buffer: major structural changes
Glutathione (GSH)
  time to equilibrium of the reaction with GSH: ≤ 30 min
pBR322 plasmid DNA
  effect on electrophoretic mobility of supercoiled pBR322 (pure form): small unwinding
